Converted amounts (≈) assume the structure as drawn.
Experiments:
[1] = serum half-life after intravenous administration to rats; conditions: rat, in vivo
Excerpt: The A82846 antibiotics have excellent in vitro and in vivo activity against Gram-positive pathogenic bacteria. A particularly unexpected attribute of these antibiotics is their long serum half-life.

Eubacterium aerofaciens = test: MIC against anaerobic bacteria, standard agar-dilution assay (Table IX); assay type: cell-based; conditions: 1 strain; Gram-positive anaerobe; 24-hour incubation
Peptococcus variabilis = test: as above; assay type: cell-based; conditions: 1 strain; Gram-positive anaerobe; 24-hour incubation
Peptococcus constellatus = test: as above; assay type: cell-based; conditions: 1 strain; Gram-positive anaerobe; 24-hour incubation
[2] = tested on: Peptostreptococcus anaerobius; test: as above; assay type: cell-based; conditions: 8 strains; Gram-positive anaerobe; 24-hour incubation
[3] = tested on: experimental descending pyelonephritis infection in rats; test: Rat Descending Pyelonephritis Test (Table XI); assay type: in vivo; conditions: for protection in experimental descending pyelonephritis infection, compared with vancomycin: rats
Description: In one important aspect of their antibacterial activity, the A82846 antibiotics are useful for treating pyelonephritis. […] This test was carried out using a procedure like that described in U.S. Pat. No. 4,208,403.
^a Doses twice per day subcutaneously for 6 days

[4] = tested on: Streptococcus faecalis X-66; test: Rat Endocarditis Test, catheter-induced (Table XII); assay type: in vivo, rats; conditions: for % Cured / % With 4 Log Drop: 16 days, 20 mg/kg × 28, subcutaneous at 12-hour intervals for 14 days; for % With 4 Log Drop: % of animals sacrificed; for effect in experimental catheter-induced endocarditis infection, compared with vancomycin: rats
Description: The A82846 antibiotics are also useful in the treatment of endocarditis. […] In this test, rats were prepared by inserting a plastic catheter into the right carotid artery, feeding it down into the […] of the heart and anchoring it securely. The animals were allowed to rest two days, and then the test organism, Streptococcus faecalis X-66, was administered intravenously. The organism titer was approximately 5×10^8 /mL; 0.5 mL was administered.
The compounds were administered subcutaneously 15 minutes prior to infection and at 12-hour intervals for 14 days, a total of 28 treatments. The animals were held 2 days after therapy; then, the hearts were removed, homogenized, diluted and plated on trypticase soy agar. Plates were incubated 48 hours before counting.
^a Catheterinduced endocarditis using Streptococcus faecalis X66
^b Subcutaneous doses at 12hour intervals for 14 days
^c % of animals sacrificed with 4 log drop

Clostridium septicum = test: MIC against anaerobic bacteria, standard agar-dilution assay (Table IX); conditions: 1 strain; Gram-positive anaerobe; 24-hour incubation
[5] = 2 mg/kg × 12, subcutaneous twice per day for 6 days
[6] = 5 mg/kg × 12, subcutaneous twice per day for 6 days
[7] = 10 mg/kg × 12, subcutaneous twice per day for 6 days

Structure (SMILES) | serum half-life [1] [h] | MIC (Eubacterium aerofaciens) [µg/mL] | MIC (Peptococcus variabilis) [µg/mL] | MIC (Peptococcus constellatus) [µg/mL] | MIC [2] [µg/mL] | Percent of Rats Cured [3, 5] [%] | Percent of Rats with a 4-Log Reduction in Titer [3, 5] [%] | Percent of Rats Cured [3, 6] [%] | Percent of Rats with a 4-Log Reduction in Titer [3, 6] [%] | Percent of Rats Cured [3, 7] [%] | Percent of Rats with a 4-Log Reduction in Titer [3, 7] [%] | protection in experimental descending pyelonephritis infection, compared with vancomycin [3] | % Cured [4] [%] | % With 4 Log Drop [4] [%] | effect in experimental catheter-induced endocarditis infection, compared with vancomycin [4] | MIC (Clostridium septicum) [µg/mL]
CN[C@H](CC(C)C)C(=O)N[C@H]1C(=O)N[C@@H](CC(N)=O)C(=O)N[C@H]2C(=O)N[C@H]3C(=O)N[C@H](C(=O)N[C@@H](C(=O)O)c4cc(O)cc(O)c4-c4cc3ccc4O)[C@H](O[C@@H]3C[C@@](C)(N)[C@H](O)[C@@H](C)O3)c3ccc(cc3)Oc3cc2cc(c3O[C@H]2O[C@@H](CO)[C@H](O)[C@@H](O)[C@@H]2O[C@H]2C[C@](C)(N)[C@@H](O)[C@H](C)O2)Oc2ccc(cc2Cl)[C@H]1O [A82846A] | 2.2 | ≤ 0.25 | 0.5 (≈ 0.321 µM) | 0.25 (≈ 0.16 µM) | 0.06 to 2 | 63 | 100 | 75 | 88 | 88 | 100 | more effective than vancomycin | 100 | 100 | as effective as vancomycin | 0.5 (≈ 0.321 µM)
CN[C@H](CC(C)C)C(=O)N[C@H]1C(=O)N[C@@H](CC(N)=O)C(=O)N[C@H]2C(=O)N[C@H]3C(=O)N[C@H](C(=O)N[C@H](C(=O)O)c4cc(O)cc(O)c4-c4cc3ccc4O)[C@H](O[C@H]3C[C@](C)(N)[C@@H](O)[C@H](C)O3)c3ccc(c(Cl)c3)Oc3cc2cc(c3O[C@@H]2O[C@H](CO)[C@@H](O)[C@H](O)[C@H]2O[C@H]2C[C@](C)(N)[C@@H](O)[C@H](C)O2)Oc2ccc(cc2Cl)[C@H]1O [A82846B] | 2.2 | 0.5 (≈ 0.314 µM) | 1 (≈ 0.628 µM) | 0.25 (≈ 0.157 µM) | 0.06 to 8 | 50 | 88 | 100 | 100 | 100 | 100 | more effective than vancomycin | 100 | 100 | as effective as vancomycin | 0.5 (≈ 0.314 µM)

— patent US5843437A, “A82846 antibiotics” (Eli Lilly and Company, priority 1995, dated 1998)
